SMILES strings stand for the structures.

For one test, the target named is PTGER4 (EP4) (Homo sapiens (Human), UniProt P35408).
The target in another test is EP2 (Homo sapiens (Human), UniProt P43116). The experiment in a line: hEP2 cAMP assay (SF295 glioblastoma cells, HTRF cAMP). It counts as cell-based. The conditions noted are these: antagonistic activity. Summed up: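 PGE2-driven cAMP accumulation was measured by HTRF in SF295 cells, which express endogenous EP2 only. Cells in assay buffer with 2 mM IBMX were pre-incubated 45 min at RT, then incubated 30 min at RT. Detection used competition between cellular cAMP and d2-cAMP for a cryptate anti-cAMP antibody.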
EP2, sequence (P43116 whole entry): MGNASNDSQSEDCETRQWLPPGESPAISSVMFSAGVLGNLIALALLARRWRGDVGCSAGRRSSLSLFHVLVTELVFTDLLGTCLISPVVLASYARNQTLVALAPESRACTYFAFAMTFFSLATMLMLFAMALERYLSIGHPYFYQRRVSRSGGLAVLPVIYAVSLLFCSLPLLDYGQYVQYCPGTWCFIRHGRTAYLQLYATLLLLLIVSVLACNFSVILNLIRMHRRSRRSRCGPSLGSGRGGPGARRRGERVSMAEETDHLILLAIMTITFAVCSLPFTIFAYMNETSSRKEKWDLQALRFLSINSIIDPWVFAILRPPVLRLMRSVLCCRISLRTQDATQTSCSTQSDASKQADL
(In general: Cyclic AMP is a second messenger, typically raised through Gs and lowered through Gi signalling.)

In a further test the target is PTGER2 (EP2) (Homo sapiens (Human), UniProt P43116). The experiment in a line: hEP2 b-arrestin assay (PathHunter HEK 293 PTGER2 b-arrestin cells). Format: cell-based. As to conditions: antagonistic activity, beta-arrestin assay; read-out: hEP2 b-arr IC50. The protocol:
Plate is pre-incubated 15 minutes at 37° C. Then five microliters of PGE2 (final conc. 5 μM) are transferred into the assay plate. Plate is incubated 120 minutes at 37° C.
(each concentration is measured in duplicate)

The next test addresses EP4 (Homo sapiens (Human), UniProt P35408). The experiment in a line: hEP4 cAMP assay (BT549 breast cancer cells, HTRF cAMP). Format: cell-based. The conditions noted are these: antagonistic activity, PGE2 6 nM. Summed up: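 cAMP accumulation quantified by HTRF competition between cellular cAMP and d2-labeled cAMP for cryptate anti-cAMP antibody. Cells: endogenously EP4-expressing BT549, buffer with 2 mM IBMX; 45 min RT compound preincubation preceded 30 min RT challenge with PGE2 at 6 nM final.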

PTGER2 (EP2), sequence (P43116 whole entry): as above
EP4, sequence (P35408 whole entry): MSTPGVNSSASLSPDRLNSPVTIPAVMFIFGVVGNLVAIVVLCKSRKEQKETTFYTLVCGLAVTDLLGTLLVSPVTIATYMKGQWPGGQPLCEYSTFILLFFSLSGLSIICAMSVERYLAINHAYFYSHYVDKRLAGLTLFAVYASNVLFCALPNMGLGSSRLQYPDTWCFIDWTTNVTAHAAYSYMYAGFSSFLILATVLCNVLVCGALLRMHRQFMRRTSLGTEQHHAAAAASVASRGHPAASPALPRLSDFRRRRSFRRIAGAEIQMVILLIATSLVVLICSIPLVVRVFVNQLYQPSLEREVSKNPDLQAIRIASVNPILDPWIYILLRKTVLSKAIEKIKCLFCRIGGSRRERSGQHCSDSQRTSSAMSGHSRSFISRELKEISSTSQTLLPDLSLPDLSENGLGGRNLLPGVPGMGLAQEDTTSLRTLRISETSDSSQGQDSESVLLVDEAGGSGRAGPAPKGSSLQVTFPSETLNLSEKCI
PTGER4 (EP4), sequence (P35408 whole entry): as above

What is called IC50 is the point on the concentration scale where inhibition reaches its midpoint. In the case of `N#Cc1csc2ccc(CCNc3cc(-c4ccc(C(=O)O)c(OC5CCC5)c4)ncn3)cc12` [Ex 273], the IC50 on PTGER4 (EP4) was determined as 221 nM; against EP2 it was 140 nM; at PTGER2 (EP2) it was 289 nM; on EP4 it was 455 nM.
The corresponding values for `CSc1cc(-c2cc(NCCc3ccc4cccc(F)c4c3)ncn2)ccc1C(=O)O` [Ex 243] are 147 nM, 2100 nM, 493 nM and 355 nM.
The corresponding values for `CCOc1cc(-c2cc(NCCc3cc(F)c4cc(C)sc4c3OC)ncn2)sc1C(=O)O` [Ex 94] are 49 nM, 528 nM, 423 nM and 59 nM.
The matching figures for `CCOc1cc(-c2cc(NCCc3ccc4scc(C#N)c4c3)ncn2)sc1C(=O)O` [Ex 27]: 16 nM, 19 nM, 75 nM and 17 nM.
In the case of `CSc1cc(-c2cc(NCCc3cc4ccsc4cc3C)ncn2)ccc1CC(=O)O` [Ex 305], the IC50 against PTGER4 (EP4) was determined as 1350 nM; against EP2, 232 nM; at PTGER2 (EP2), 57 nM; at EP4 it was 653 nM.
The matching figures for `COc1cc2c(cc1CCNc1cc(-c3ccc(C(=O)O)c(OC4CCC4)c3)ncn1)OCCO2` [Ex 187]: 144 nM, 64 nM, 74 nM and 206 nM.
The matching figures for `CCOc1cc(-c2cc(NCCc3cc4c(Cl)ccnc4cc3C)ncn2)sc1C(=O)O` [Ex 178]: 164 nM, 54 nM, 30 nM and 188 nM.
On to `COc1cc2ccccc2c(C)c1CCNc1cc(-c2ccc(C(=O)O)c(OC3CCC3)c2)ncn1` [Ex 79], for which the IC50 came to 56 nM at PTGER4 (EP4), 83 nM at EP2, 43 nM at PTGER2 (EP2) and 44 nM on EP4.
The corresponding values for `CCOc1cc(-c2cc(NCCc3cc4ccccc4c(F)c3OC)ncn2)ccc1C(=O)O` [Ex 174] are 88 nM, 269 nM, 409 nM and 90 nM.
The matching figures for `CCOc1cc(-c2cc(NCCc3cc4c(cc3C#N)OCCO4)ncn2)sc1C(=O)O` [Ex 6]: 6 nM, 37 nM, 11 nM and 4 nM.
The corresponding values for `CSc1cc(-c2cc(NCCc3ccc4sccc4c3C)ncn2)ccc1C(=O)O` [Ex 204] are 633 nM, 29 nM, 12 nM and 186 nM.
For the molecule `Cc1c(CCNc2cc(-c3ccc(C(=O)O)c(OC4CCC4)c3)ncn2)ccc2sccc12` [Ex 268], the IC50 at PTGER4 (EP4) stood at 688 nM; at EP2, 47 nM; on PTGER2 (EP2) it was 25 nM; against EP4, 342 nM.
In the case of `CSc1cc(-c2cc(NCCc3ccc4c(c3)CCS4)ncn2)ccc1C(=O)O` [Ex 138], the concentration for half-maximal inhibition (IC50) against PTGER4 (EP4) was determined as 358 nM; on EP2 it was 61 nM; on PTGER2 (EP2), 74 nM; on EP4, 120 nM.
The matching figures for `CCOc1cc(-c2cc(NCCc3ccc4sccc4c3C)ncn2)ccc1C(=O)O` [Ex 296]: 1600 nM, 61 nM, 34 nM and 583 nM.
The corresponding values for `CCOc1cc(-c2cc(NCCc3cc4c(cc3OC)OCCO4)ncn2)sc1C(=O)O` [Ex 26] are 22 nM, 19 nM, 19 nM and 16 nM.
Consider `COc1cc2sccc2cc1CCNc1cc(-c2ccc(CC(=O)O)c(SC)c2)ncn1` [Ex 224], for which the IC50 at PTGER4 (EP4) turned out to be 260 nM; against EP2 it was 61 nM; at PTGER2 (EP2), 84 nM; against EP4, 173 nM.
The matching figures for `CCOc1cc(-c2cc(NCCc3c(OC)cc4ccccc4c3C)ncn2)sc1C(=O)O` [Ex 1]: 2 nM, 8 nM, 6 nM and 1 nM.
Consider `CSc1cc(-c2cc(NCCc3cc4ccsc4cc3C#N)ncn2)ccc1C(=O)O` [Ex 77], for which the IC50 came to 154 nM against PTGER4 (EP4), 25 nM at EP2, 47 nM on PTGER2 (EP2) and 43 nM at EP4.
As to `CCOc1cc(-c2cc(NCCc3ccc4scnc4c3)ncn2)sc1C(=O)O` [Ex 88], the IC50 on PTGER4 (EP4) was determined as 59 nM; on EP2, 64 nM; on PTGER2 (EP2), 107 nM; against EP4 it was 53 nM.
The corresponding values for `CCOc1cc(-c2cc(NCCc3cc4c(cc3C#N)OCO4)ncn2)sc1C(=O)O` [Ex 64] are 41 nM, 28 nM, 25 nM and 33 nM.
Take `CCOc1cc(-c2cc(NCCc3ccc4sccc4c3)nc(C)n2)sc1C(=O)O` [Ex 96]: the IC50 was found to be 92 nM against PTGER4 (EP4), 57 nM at EP2, 148 nM at PTGER2 (EP2) and 61 nM on EP4.
The matching figures for `CCOc1cc(-c2cc(NCCc3c(C#N)cc4ccccc4c3C)ncn2)sc1C(=O)O` [Ex 2]: 3 nM, 79 nM, 113 nM and 1 nM.
The matching figures for `CCOc1cc(-c2cc(NCCc3ccc4scc(C#N)c4c3)ncn2)ccc1C(=O)O` [Ex 253]: 671 nM, 158 nM, 521 nM and 373 nM.
As to `CCOc1cc2ccccc2cc1CCNc1cc(-c2ccc(C(=O)O)c(OCC)c2)ncn1` [Ex 188], the IC50 on PTGER4 (EP4) came to 105 nM; at EP2, 142 nM; on PTGER2 (EP2) it was 45 nM; against EP4, 206 nM.
The matching figures for `CCOc1cc(-c2cc(NCCc3ccc4sncc4c3)ncn2)sc1C(=O)O` [Ex 135]: 172 nM, 171 nM, 198 nM and 115 nM.
The matching figures for `COc1cc2ccccc2c(C)c1CCNc1cc(-c2ccc(C(=O)O)c(SC)c2)ncn1` [Ex 59]: 94 nM, 18 nM, 37 nM and 30 nM.
As to `CCOc1cc(-c2cc(NCCc3ccc4sccc4c3C)ncn2)ccc1CC(=O)O` [Ex 289], the IC50 against PTGER4 (EP4) was determined as 964 nM; against EP2 it was 358 nM; at PTGER2 (EP2) it was 144 nM; against EP4, 525 nM.
In the case of `CCOc1cc(-c2cc(NCCc3ccc4c(c3)CCO4)ncn2)sc1C(=O)O` [Ex 114], the IC50 at PTGER4 (EP4) worked out at 640 nM; on EP2, 222 nM; on PTGER2 (EP2), 222 nM; against EP4, 85 nM.
As for `CCOc1cc(-c2cc(NCCc3ccc4ccccc4c3C)ncn2)sc1CC(=O)O` [Ex 148], the IC50 on PTGER4 (EP4) came to 46 nM; on EP2, 126 nM; on PTGER2 (EP2), 174 nM; on EP4, 141 nM.
The corresponding values for `COc1c(CCNc2cc(-c3cc(F)c(C(=O)O)c(OC4CCC4)c3)ncn2)c(F)c(F)c2cc(C)oc12` [Ex 262] are 186 nM, 855 nM, 1300 nM and 424 nM.
The matching figures for `CCOc1cc(-c2cc(NCCc3ccc4scc(C#N)c4c3)ncn2)ccc1CC(=O)O` [Ex 209]: 143 nM, 248 nM, 832 nM and 249 nM.
The matching figures for `CCOc1cc(-c2cc(NCCc3cc4cccnc4c(F)c3Cl)ncn2)sc1C(=O)O` [Ex 117]: 131 nM, 61 nM, 53 nM and 88 nM.

These data come from patent US11839613B2, “Pyrimidine derivatives as PGE2 receptor modulators” (IDORSIA PHARMACEUTICALS LTD, priority 2017, dated 2023).
